Data published in patent US20260262643A1, “HERBICIDAL BENZOXAZINES” (FMC CORPORATION, priority 2022, published 2026).

Experiments:
blackgrass [1] = experiment: Test A preemergence; type: in vivo, Alopecurus myosuroides
How it was run: (§1)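 Loam/sand soil; pre-em directed soil spray at planting, post-em spray at 1–2 leaf (2–10 cm). Compound in non-phytotoxic solvent + surfactant. Greenhouse 10 d; visual injury vs untreated, 0 = no effect, 100 = complete control.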

corn [2] = experiment: Test A preemergence; type: in vivo, Zea mays
How it was run: as §1

foxtail, giant [3] = experiment: Test A preemergence; type: in vivo, Setaria faberi
How it was run: as §1

goosegrass [4] = experiment: Test A preemergence; type: in vivo, Eleusine indica
How it was run: as §1

kochia [5] = experiment: Test A preemergence; type: in vivo, Bassia scoparia
How it was run: as §1

oat, wild [6] = experiment: Test A preemergence; type: in vivo, Avena fatua
How it was run: as §1

pigweed, palmer [7] = experiment: Test A preemergence; type: in vivo, Amaranthus palmeri
How it was run: as §1

ragweed [8] = experiment: Test A preemergence; type: in vivo, Ambrosia artemisiifolia
How it was run: as §1

ryegrass, Italian [9] = experiment: Test A preemergence; type: in vivo, Lolium multiflorum
How it was run: as §1

soybean [10] = experiment: Test A preemergence; type: in vivo, Glycine max
How it was run: as §1

wheat [11] = experiment: Test A preemergence; type: in vivo, Triticum aestivum
How it was run: as §1

blackgrass [12] = experiment: Test A postemergence; type: in vivo, Alopecurus myosuroides; settings: postemergence, 10 days; for Blackgrass plant response rating: 125 g ai/ha, 0 to 100 scale, 0 no effect, 100 complete control; for Plant response rating, Blackgrass: 500 g ai/ha, visual injury, 0 to 100 scale (0 no effect, 100 complete control)
How it was run: as §1

corn [13] = experiment: Test A postemergence; type: in vivo, Zea mays; settings: postemergence, 10 days; for Corn plant response rating: 125 g ai/ha, 0 to 100 scale, 0 no effect, 100 complete control; for Plant response rating, Corn: 500 g ai/ha, visual injury, 0 to 100 scale (0 no effect, 100 complete control)
How it was run: as §1

foxtail, giant [14] = experiment: Test A postemergence; type: in vivo, Setaria faberi; settings: postemergence, 10 days; for Foxtail, Giant plant response rating: 125 g ai/ha, 0 to 100 scale, 0 no effect, 100 complete control; for Plant response rating, Foxtail, Giant: 500 g ai/ha, visual injury, 0 to 100 scale (0 no effect, 100 complete control)
How it was run: as §1

goosegrass [15] = experiment: Test A postemergence; type: in vivo, Eleusine indica; settings: postemergence, 10 days; for Goosegrass plant response rating: 125 g ai/ha, 0 to 100 scale, 0 no effect, 100 complete control; for Plant response rating, Goosegrass: 500 g ai/ha, visual injury, 0 to 100 scale (0 no effect, 100 complete control)
How it was run: as §1

kochia [16] = experiment: Test A postemergence; type: in vivo, Bassia scoparia; settings: postemergence, 10 days; for Kochia plant response rating: 125 g ai/ha, 0 to 100 scale, 0 no effect, 100 complete control; for Plant response rating, Kochia: 500 g ai/ha, visual injury, 0 to 100 scale (0 no effect, 100 complete control)
How it was run: as §1

oat, wild [17] = experiment: Test A postemergence; type: in vivo, Avena fatua; settings: postemergence, 10 days; for Oat, Wild plant response rating: 125 g ai/ha, 0 to 100 scale, 0 no effect, 100 complete control; for Plant response rating, Oat, Wild: 500 g ai/ha, visual injury, 0 to 100 scale (0 no effect, 100 complete control)
How it was run: as §1

pigweed, palmer [18] = experiment: Test A postemergence; type: in vivo, Amaranthus palmeri; settings: postemergence, 10 days; for Pigweed, Palmer plant response rating: 125 g ai/ha, 0 to 100 scale, 0 no effect, 100 complete control; for Plant response rating, Pigweed, Palmer: 500 g ai/ha, visual injury, 0 to 100 scale (0 no effect, 100 complete control)
How it was run: as §1

ragweed [19] = experiment: Test A postemergence; type: in vivo, Ambrosia artemisiifolia; settings: postemergence, 10 days; for Ragweed plant response rating: 125 g ai/ha, 0 to 100 scale, 0 no effect, 100 complete control; for Plant response rating, Ragweed: 500 g ai/ha, visual injury, 0 to 100 scale (0 no effect, 100 complete control)
How it was run: as §1

ryegrass, Italian [20] = experiment: Test A postemergence; type: in vivo, Lolium multiflorum; settings: postemergence, 10 days; for Ryegrass, Italian plant response rating: 125 g ai/ha, 0 to 100 scale, 0 no effect, 100 complete control; for Plant response rating, Ryegrass, Italian: 500 g ai/ha, visual injury, 0 to 100 scale (0 no effect, 100 complete control)
How it was run: as §1

soybean [21] = experiment: Test A postemergence; type: in vivo, Glycine max; settings: postemergence, 10 days; for Soybean plant response rating: 125 g ai/ha, 0 to 100 scale, 0 no effect, 100 complete control; for Plant response rating, Soybean: 500 g ai/ha, visual injury, 0 to 100 scale (0 no effect, 100 complete control)
How it was run: as §1

wheat [22] = experiment: Test A postemergence; type: in vivo, Triticum aestivum; settings: postemergence, 10 days; for Wheat plant response rating: 125 g ai/ha, 0 to 100 scale, 0 no effect, 100 complete control; for Plant response rating, Wheat: 500 g ai/ha, visual injury, 0 to 100 scale (0 no effect, 100 complete control)
How it was run: as §1

horseweed = experiment: Test A postemergence; type: in vivo, Erigeron canadensis; settings: postemergence, 10 days; for Horseweed plant response rating: 125 g ai/ha, 0 to 100 scale, 0 no effect, 100 complete control; for Plant response rating, Horseweed: 500 g ai/ha, visual injury, 0 to 100 scale (0 no effect, 100 complete control)
How it was run: as §1

barnyardgrass = experiment: Test B flooded paddy test; type: in vivo, Echinochloa crus-galli; settings: 250 g ai/ha, Flood, 13 days, 0 to 100 scale (0 no effect, 100 complete control)
How it was run: (§2)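 Percent weed or crop control, judged by eye on a 0–100 scale 13 days post-treatment, reflects compound added to a 3 cm flood maintained over 2-leaf plants in the greenhouse. Missing entries are marked with a dash.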

ducksalad = experiment: Test B flooded paddy test; type: in vivo, Heteranthera limosa; settings: 250 g ai/ha, Flood, 13 days, 0 to 100 scale (0 no effect, 100 complete control)
How it was run: as §2

rice = experiment: Test B flooded paddy test; type: in vivo, Oryza sativa; settings: 250 g ai/ha, Flood, 13 days, 0 to 100 scale (0 no effect, 100 complete control)
How it was run: as §2

sedge, umbrella = experiment: Test B flooded paddy test; type: in vivo, Cyperus difformis; settings: 250 g ai/ha, Flood, 13 days, 0 to 100 scale (0 no effect, 100 complete control)
How it was run: as §2

[23] = 125 g ai/ha, visual injury after 10 days, 0 to 100 scale, 0 is no effect, 100 is complete control
[24] = 500 g ai/ha, 0 to 100 scale (0 no effect, 100 complete control), 10 days

Cc1cccc2c1O[C@@H](C)CN2C(=O)c1cccc(-n2cnc(C3CCCCC3)n2)c1 [Compound 82]
Plant response rating, Blackgrass (blackgrass [1]; [23]): 0
Plant response rating, Blackgrass (blackgrass [1]; [24]): 0
Plant response rating, Corn (corn [2]; [23]): 0
Plant response rating, Corn (corn [2]; [24]): 10
Plant response rating, Foxtail, Giant (foxtail, giant [3]; [23]): 0
Plant response rating, Foxtail, Giant (foxtail, giant [3]; [24]): 20
Plant response rating, Goosegrass (goosegrass [4]; [23]): 20
Plant response rating, Goosegrass (goosegrass [4]; [24]): 90
Plant response rating, Kochia (kochia [5]; [23]): 0
Plant response rating, Kochia (kochia [5]; [24]): 0
Plant response rating, Oat, Wild (oat, wild [6]; [23]): 10
Plant response rating, Oat, Wild (oat, wild [6]; [24]): 20
Plant response rating, Pigweed, Palmer (pigweed, palmer [7]; [23]): 0
Plant response rating, Pigweed, Palmer (pigweed, palmer [7]; [24]): 40
Plant response rating, Ragweed (ragweed [8]; [23]): 0
Plant response rating, Ragweed (ragweed [8]; [24]): 0
Plant response rating, Ryegrass, Italian (ryegrass, Italian [9]; [23]): 60
Plant response rating, Ryegrass, Italian (ryegrass, Italian [9]; [24]): 100
Plant response rating, Soybean (soybean [10]; [23]): 0
Plant response rating, Soybean (soybean [10]; [24]): 0
Plant response rating, Wheat (wheat [11]; [23]): 0
Plant response rating, Wheat (wheat [11]; [24]): 0
Blackgrass plant response rating (blackgrass [12]): 0
Plant response rating, Blackgrass (blackgrass [12]): 10
Corn plant response rating (corn [13]): 0
Plant response rating, Corn (corn [13]): 10
Foxtail, Giant plant response rating (foxtail, giant [14]): 10
Plant response rating, Foxtail, Giant (foxtail, giant [14]): 10
Goosegrass plant response rating (goosegrass [15]): 0
Plant response rating, Goosegrass (goosegrass [15]): 20
Kochia plant response rating (kochia [16]): 70
Plant response rating, Kochia (kochia [16]): 80
Oat, Wild plant response rating (oat, wild [17]): 0
Plant response rating, Oat, Wild (oat, wild [17]): 0
Pigweed, Palmer plant response rating (pigweed, palmer [18]): 0
Plant response rating, Pigweed, Palmer (pigweed, palmer [18]): 50
Ragweed plant response rating (ragweed [19]): 0
Plant response rating, Ragweed (ragweed [19]): 50
Ryegrass, Italian plant response rating (ryegrass, Italian [20]): 0
Plant response rating, Ryegrass, Italian (ryegrass, Italian [20]): 30
Soybean plant response rating (soybean [21]): 90
Plant response rating, Soybean (soybean [21]): 90
Wheat plant response rating (wheat [22]): 10
Plant response rating, Wheat (wheat [22]): 10
Horseweed plant response rating (horseweed): 0
Plant response rating, Horseweed (horseweed): 0
Plant response rating, Barnyardgrass (barnyardgrass): 0
Plant response rating, Ducksalad (ducksalad): 0
Plant response rating, Rice (rice): 0
Plant response rating, Sedge, Umbrella (sedge, umbrella): 0

COc1ccc(-n2cnc(C(C)(C)C)n2)cc1C(=O)N1C[C@H](C)Oc2c(Cl)cccc21 [Compound 83]
Plant response rating, Blackgrass (blackgrass [1]; [23]): 40
Plant response rating, Blackgrass (blackgrass [1]; [24]): 50
Plant response rating, Corn (corn [2]; [23]): 0
Plant response rating, Corn (corn [2]; [24]): 20
Plant response rating, Foxtail, Giant (foxtail, giant [3]; [23]): 100
Plant response rating, Foxtail, Giant (foxtail, giant [3]; [24]): 100
Plant response rating, Goosegrass (goosegrass [4]; [23]): 100
Plant response rating, Goosegrass (goosegrass [4]; [24]): 100
Plant response rating, Kochia (kochia [5]; [23]): 90
Plant response rating, Kochia (kochia [5]; [24]): 100
Plant response rating, Oat, Wild (oat, wild [6]; [23]): 90
Plant response rating, Oat, Wild (oat, wild [6]; [24]): 90
Plant response rating, Pigweed, Palmer (pigweed, palmer [7]; [23]): 100
Plant response rating, Pigweed, Palmer (pigweed, palmer [7]; [24]): 100
Plant response rating, Ragweed (ragweed [8]; [23]): 50
Plant response rating, Ragweed (ragweed [8]; [24]): 90
Plant response rating, Ryegrass, Italian (ryegrass, Italian [9]; [23]): 100
Plant response rating, Ryegrass, Italian (ryegrass, Italian [9]; [24]): 100
Plant response rating, Soybean (soybean [10]; [23]): 50
Plant response rating, Soybean (soybean [10]; [24]): 100
Plant response rating, Wheat (wheat [11]; [23]): 10
Plant response rating, Wheat (wheat [11]; [24]): 90
Blackgrass plant response rating (blackgrass [12]): 10
Plant response rating, Blackgrass (blackgrass [12]): 60
Corn plant response rating (corn [13]): 30
Plant response rating, Corn (corn [13]): 50
Foxtail, Giant plant response rating (foxtail, giant [14]): 20
Plant response rating, Foxtail, Giant (foxtail, giant [14]): 90
Goosegrass plant response rating (goosegrass [15]): 70
Plant response rating, Goosegrass (goosegrass [15]): 100
Kochia plant response rating (kochia [16]): 100
Plant response rating, Kochia (kochia [16]): 100
Oat, Wild plant response rating (oat, wild [17]): 20
Plant response rating, Oat, Wild (oat, wild [17]): 70
Pigweed, Palmer plant response rating (pigweed, palmer [18]): 100
Plant response rating, Pigweed, Palmer (pigweed, palmer [18]): 90
Ragweed plant response rating (ragweed [19]): 70
Plant response rating, Ragweed (ragweed [19]): 100
Ryegrass, Italian plant response rating (ryegrass, Italian [20]): 40
Plant response rating, Ryegrass, Italian (ryegrass, Italian [20]): 100
Soybean plant response rating (soybean [21]): 100
Plant response rating, Soybean (soybean [21]): 100
Wheat plant response rating (wheat [22]): 10
Plant response rating, Wheat (wheat [22]): 40
Horseweed plant response rating (horseweed): 40
Plant response rating, Horseweed (horseweed): 40
Plant response rating, Barnyardgrass (barnyardgrass): 40
Plant response rating, Ducksalad (ducksalad): 30
Plant response rating, Rice (rice): 0
Plant response rating, Sedge, Umbrella (sedge, umbrella): 100
